Test results: patent US4691024A, “New mitomycin derivatives, preparation thereof and pharmaceutical compositions containing them” (priority 1984, dated 1987)
Values after ≈ are worked out from the molar mass of the structure shown.

Experiments:
[1] = system: Staphylococcus aureus ATCC 6538P; assay: Antibacterial activity, minimum growth inhibitory concentration by agar dilution method (SA); assay type: cell-based; details: ATCC6538P, pH 7, read-out: MIC, Staphylococcus aureus (SA)
Method: (§1) The various compounds of formula (I) of Examples 1-26 were tested for antibacterial activity against 6 microorganisms. […]. In this table, the following symbols are used:
SA: Staphylococcus aureus ATCC 6538P

[2] = Acute toxicity in mice (LD50, Behrens Kerber's method); details: mouse, in vivo, ip; ddy mice, single intraperitoneal administration, 14 days observation
Method: (§2) The antitumour-activity and toxicity of various compounds of formula (I) were investigated as indicated below.
Each animal of the test group consisting of 5 ddy mice was administered intraperitoneally once with a test compound. […] The LD50 was determined by Behrens Kerber's method.

peripheral leucocytes = assay: Effect on the peripheral leucocytes number in Sarcoma 180 bearing mice; assay type: in vivo; details: Sarcoma 180 bearing ddy mice; intraperitoneal 24 hours after implantation; blood 4 days later
Method: as §2
(4) Effect on the peripheral leucocytes number
Sarcoma 180 solid tumour cells (5×10^6) were subcutaneously implanted into the right arm pit of each mouse (body weight 20±2 g) of a group consisting of 5 male mice (ddy strain). 24 hours after implantation, a test compound was intraperitoneally administered to each animal. 4 days later, blood (each 0.02 ml) was collected from the suborbital plexus vein of each tumour-carrying animal. The collected sample of the blood was dispersed in 9.98 ml of Cell-Kit Seven solution. One drop of saponin solution was added to the sample to dissolve erythrocytes, and then a microcell counter was used to measure the number of leucocytes. On a graph paper, the number of leucocytes was indicated on the y-axis by an arithmetic scale and the dose of the test compound was indicated on the x-axis by a logarithmic scale. The relationship between the number of peripheral leucocytes and the dosage of the test compound was plotted and the dosage corresponding to 4000 peripheral leucocytes/mm^3 (about 1/2 the number of leucocytes of normal mice) was obtained. This value is denoted in Table 5 by WBC4000.

Bacillus subtilis 10707 = assay: Antibacterial activity, minimum growth inhibitory concentration by agar dilution method (BS); assay type: cell-based; details: Bacillus subtilis, 10707, pH 7, read-out: MIC, Bacillus subtilis (BS)
Method: as §1
BS: Bacillus subtilis 10707

Sarcoma 180 solid tumour = assay: Anti-tumour activity against Sarcoma 180 solid tumour in mice; assay type: in vivo; details: Mus musculus, sc, 168 h; Sarcoma 180 s.c. in ddy mice; into tail vein 24 hours after implantation; volume at 7 days; read-out: ED50 (dose reducing tumour volume to 50% of control)
Method: as §2
(1) Effect against Sarcoma 180 solid tumour cells
5×10^6 cells of Sarcoma 180 solid tumour were intraperitoneally implanted into ddy mice. 7 days later, ascites cells were sampled. The cells were washed once with a sterilized physiological solution of sodium chloride and were used to prepare a cell suspension containing 5×10^7 cells per ml. On each occasion, 0.1 ml of the cell suspension was subcutaneously implanted into the right arm pit of a male mouse (ddy strain; body weight 20±2 g). The test compound was dissolved in a physiological solution of sodium chloride with or without addition of Tween 80 and was administered into the tail vein of each mouse of a group consisting of 5 mice at a dose of 0.1-0.2 ml, 24 hours after the implantation of the tumour cells.
The anti-tumour activity was determined in the following manner. 7 days after the implantation, the major axis (a) and the minor axis (b) of the tumour were measured to calculate a value of "a×b^2 /2" which corresponds to the volume of the tumour. The anti-tumour activity was expressed by the ratio of the volume of the tumours (T) of the group of animals administered with the test compound to the corresponding volume of tumours (c) of the untreated animals.
(2) Determination of ED50
(The amount needed for reducing the volume of Sarcoma 180 solid tumours in mice to 50% on the basis of the corresponding volume of Sarcoma solid tumours in control untreated animals). On graph paper, T/C (the ratio of the volume of tumours of treated and control animals) was indicated by an arithmetic scale on the longitudinal axis and the administered amount of the test compound was indicated by a logarithmic scale on the lateral axis.
The relationship between the dose and T/C was shown by a straight line determined by the method of least squares, from which a dose corresponding to T/C of 0.5 was obtained.

[3] = system: Proteus vulgaris ATCC 6897; assay: Antibacterial activity, minimum growth inhibitory concentration by agar dilution method (PV); assay type: cell-based; details: ATCC6897, pH 7, read-out: MIC, Proteus vulgaris (PV)
Method: as §1
PV: Proteus vulgaris ATCC 6897

[4] = system: Streptococcus faecalis ATCC 10541; assay: Antibacterial activity, minimum growth inhibitory concentration by agar dilution method (SF); assay type: cell-based; details: Enterococcus faecalis, ATCC10541, pH 7, read-out: MIC, Streptococcus faecalis (SF)
Method: as §1
SF: Streptococcus faecalis ATCC 10541

[5] = system: Klebsiella pneumoniae ATCC 10031; assay: microbe, parasite or virus in culture; assay type: cell-based; details: ATCC10031, pH 7, read-out: MIC, Klebsiella pneumoniae (KP)
Description: In this table, the following symbols are used:
KP: Klebsiella pneumoniae ATCC 10031

[6] = system: Shigella sonnei ATCC 9290; assay: Antibacterial activity, minimum growth inhibitory concentration by agar dilution method (SS); assay type: cell-based; details: ATCC9290, pH 7, read-out: MIC, Shigella sonnei (SS)
Method: as §1
SS: Shigella sonnei ATCC 9290

[7] = Solubility in 0.03M phosphate buffered solution; assay type: physicochemical; details: 0.03m phosphate buffer, aqueous buffer, pH 7.0, 23° C.
Method: The solubilities of Compound 5, Compound 14 and Compound 20 in 0.03M phosphate buffered solution (pH 7.0, 23° C.) were determined.

| Structure (SMILES) | MIC [1] [µg/mL] | LD50 at 336 h [2] [mg/kg] | WBC4000 (dosage corresponding to 4000 peripheral leucocytes/mm^3) (peripheral leucocytes) [mg/kg] | MIC (Bacillus subtilis 10707) [µg/mL] | ED50 (Sarcoma 180 solid tumour) [mg/kg] | MIC [3] [µg/mL] | MIC [4] [µg/mL] | MIC [5] [µg/mL] | MIC [6] [µg/mL] | solubility [7] [mg/mL] |
| --- | --- | --- | --- | --- | --- | --- | --- | --- | --- | --- |
| CC1=C(NCCSSC[C@H](N)C(=O)NCC(=O)O)C(=O)C2=C(C1=O)N1C[C@H]3[C@H](N3C)[C@]1(O)[C@H]2COC(N)=O (stereo partly drawn) [Compound 21, 7-N-[2-[(Glycino-L-cystein-S-yl)thio]ethyl]mitomycin D] | 13 (≈ 22.8 µM) | > 200 | 83.9 | 3.1 (≈ 5.43 µM) | 61.1 | 13 (≈ 22.8 µM) | 13 (≈ 22.8 µM) | – | – | – |
| CO[C@@]12[C@H](COC(N)=O)C3=C(C(=O)C(C)=C(NCCSSC(C)(C)[C@@H](N)C(=O)O)C3=O)N1C[C@@H]1N[C@@H]12 [Compound 28] | – | 26.3 | 16.3 | – | 8.2 | – | – | – | – | – |
| CO[C@@]12[C@H](COC(N)=O)C3=C(C(=O)C(C)=C(NCCSSc4ccc(N)cc4)C3=O)N1C[C@@H]1N[C@@H]12 [Compound 4, 7-N-[2-(4-aminophenyldithio)ethyl]mitomycin C] | 0.08 (≈ 0.155 µM) | 9 | > 10 | 0.02 (≈ 0.0386 µM) | 5.1 | 5 (≈ 9.66 µM) | 0.04 (≈ 0.0773 µM) | 1.3 (≈ 2.51 µM) | > 20 | – |
| COc1ccc(SSCCNC2=C(C)C(=O)C3=C(C2=O)[C@@H](COC(N)=O)[C@@]2(OC)[C@H]4N[C@H]4CN32)cc1 [Compound 9, 7-N-[2-(4-Methoxyphenyldithio)ethyl]mitomycin C] | < 0.02 | 5.3 | > 10 | < 0.02 | 7.4 | 1.3 (≈ 2.44 µM) | < 0.02 | 0.63 (≈ 1.18 µM) | 40 (≈ 75.1 µM) | – |
| CO[C@@]12[C@H](COC(N)=O)C3=C(C(=O)C(C)=C(NCCSSC(C)(C)[C@H](N)C(=O)O)C3=O)N1C[C@@H]1N[C@@H]12 [Compound 18, 7-N-[2-[(L-Pencillamin-S-yl)thio]ethyl]mitomycin C] | 0.31 (≈ 0.572 µM) | 30 | 18.8 | 0.08 (≈ 0.148 µM) | 9.9 | 0.31 (≈ 0.572 µM) | 0.63 (≈ 1.16 µM) | 0.08 (≈ 0.148 µM) | > 20 | – |
| CO[C@@]12[C@H](COC(N)=O)C3=C(C(=O)C(C)=C(NCCSSC[C@H](N)C(=O)O)C3=O)N1C[C@@H]1N[C@@H]12 [Compound 14, 7-N-[2-[(L-Cystein-S-yl)thio]ethyl]mitomycin C] | 0.31 (≈ 0.604 µM) | 30 | 26.9 | 0.16 (≈ 0.312 µM) | 15.4 | 5 (≈ 9.74 µM) | 0.31 (≈ 0.604 µM) | 0.63 (≈ 1.23 µM) | > 20 | > 100 |
| CC1=C(NCCSSC[C@H](N)C(=O)O)C(=O)C2=C(C1=O)N1C[C@H]3[C@H](N3C)[C@]1(O)[C@H]2COC(N)=O (stereo partly drawn) [Compound 15, 7-N-[2-[(L-Cystein-S-yl)thio]ethyl]mitomycin D] | 13 (≈ 25.3 µM) | 135 | 81.9 | 6.3 (≈ 12.3 µM) | 54 | 13 (≈ 25.3 µM) | 13 (≈ 25.3 µM) | – | – | – |
